pEC50: −log10 of the molar value. Read-outs that look alike come from different tables or passages of the source.
Tests used:
CfEcR-DEF mutant L132V = CfEcR-DEF mutant L132V (Choristoneura fumiferana, UniProt O77255, L415V); assay: cell-based
How it was run: (§1)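 Mutant CfEcR-DEF receptor and GAL4-driven luciferase reporter constructs transfected into mouse NIH3T3 cells with DMSO or ligand added; maintained 48 h at 37° C in 5% FBS, harvested 40 h after ligand addition. Dual-luciferase read-out; fold induction = RLU with ligand / RLU with DMSO.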

CfEcR-DEF mutant A110P = CfEcR-DEF mutant A110P (Choristoneura fumiferana, UniProt O77255, A393P); assay: cell-based
How it was run: as §1

CfEcR-DEF mutant M125P = CfEcR-DEF mutant M125P (Choristoneura fumiferana, UniProt O77255, M408P); assay: cell-based
CfEcR-DEF mutant M125P, sequence (P28702 299-449): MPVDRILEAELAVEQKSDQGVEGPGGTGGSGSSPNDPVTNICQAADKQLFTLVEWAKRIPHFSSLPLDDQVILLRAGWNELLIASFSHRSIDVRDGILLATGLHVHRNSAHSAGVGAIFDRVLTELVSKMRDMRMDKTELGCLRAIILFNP
CfEcR-DEF mutant M125P, sequence (O77255 entry or part of it M408P): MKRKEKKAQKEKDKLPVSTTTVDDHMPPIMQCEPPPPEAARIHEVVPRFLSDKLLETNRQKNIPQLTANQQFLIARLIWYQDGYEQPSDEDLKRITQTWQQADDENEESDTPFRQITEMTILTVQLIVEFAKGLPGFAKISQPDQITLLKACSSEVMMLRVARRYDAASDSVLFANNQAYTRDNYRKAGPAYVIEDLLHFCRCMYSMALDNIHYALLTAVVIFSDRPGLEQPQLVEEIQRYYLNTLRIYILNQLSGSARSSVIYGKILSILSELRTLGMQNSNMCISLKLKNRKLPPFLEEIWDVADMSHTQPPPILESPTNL
How it was run: as §1

CfEcR-DEF mutant W238P = CfEcR-DEF mutant W238P (Choristoneura fumiferana, UniProt O77255, W521P); assay: cell-based
CfEcR-DEF mutant W238P, sequence (P28702 299-449): as the sequence (P28702 299-449) above
CfEcR-DEF mutant W238P, sequence (O77255 entry or part of it W521P): as the sequence (O77255 entry or part of it M408P) above, with P190M, W303P counted along it
How it was run: as §1

CfEcR-DEF mutant R95W = CfEcR-DEF mutant R95W (Choristoneura fumiferana, UniProt O77255, R378W); assay: cell-based
How it was run: as §1

CfEcR-DEF mutant M54W = CfEcR-DEF mutant M54W (Choristoneura fumiferana, UniProt O77255, M337W); assay: cell-based
How it was run: as §1

CfEcR-DEF mutant F109N = CfEcR-DEF mutant F109N (Choristoneura fumiferana, UniProt O77255, F392N); assay: cell-based
CfEcR-DEF mutant F109N, sequence (P28702 299-449): as the sequence (P28702 299-449) above
CfEcR-DEF mutant F109N, sequence (O77255 entry or part of it F392N): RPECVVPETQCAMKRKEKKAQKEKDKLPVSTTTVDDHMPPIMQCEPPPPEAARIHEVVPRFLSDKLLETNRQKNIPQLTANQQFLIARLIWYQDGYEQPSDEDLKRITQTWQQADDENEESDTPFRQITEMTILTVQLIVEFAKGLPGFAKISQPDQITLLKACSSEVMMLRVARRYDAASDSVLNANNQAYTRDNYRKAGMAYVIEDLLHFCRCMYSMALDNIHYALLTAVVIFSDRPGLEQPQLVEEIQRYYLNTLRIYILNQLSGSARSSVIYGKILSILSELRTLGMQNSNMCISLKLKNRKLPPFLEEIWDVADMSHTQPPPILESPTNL
How it was run: as §1

CfEcR-DEF mutant F109W = CfEcR-DEF mutant F109W (Choristoneura fumiferana, UniProt O77255, F392W); assay: cell-based
CfEcR-DEF mutant F109W, sequence (O77255 entry or part of it F392W): as the sequence (O77255 entry or part of it F392N) above, with N186W counted along it
CfEcR-DEF mutant F109W, sequence (P28702 299-449, further chain): as the sequence (P28702 299-449) above
How it was run: as §1

CfEcR-DEF mutant M125C = CfEcR-DEF mutant M125C (Choristoneura fumiferana, UniProt O77255, M408C); assay: cell-based
How it was run: as §1

CfEcR-DEF mutant F48L = CfEcR-DEF mutant F48L (Choristoneura fumiferana, UniProt O77255, F331L); assay: cell-based
CfEcR-DEF mutant F48L, sequence (P28702 299-449): as above
CfEcR-DEF mutant F48L, sequence (O77255 entry or part of it F331L): as the sequence (O77255 entry or part of it M408P) above, with F113L, P190M counted along it
How it was run: as §1

CfEcR-DEF mutant Y120W = CfEcR-DEF mutant Y120W (Choristoneura fumiferana, UniProt O77255, Y403W); assay: cell-based
How it was run: as §1

CfEcR-DEF mutant L234M = CfEcR-DEF mutant L234M (Choristoneura fumiferana, UniProt O77255, L517M); assay: cell-based
CfEcR-DEF mutant L234M, sequence (P28702 299-449): as the sequence (P28702 299-449) above
CfEcR-DEF mutant L234M, sequence (O77255 entry or part of it L517M): as the sequence (O77255 entry or part of it F392N) above, with N186F, L311M counted along it
How it was run: as §1

[1] = biological target: CfEcR-DEF mutant N119F/V96T (Choristoneura fumiferana, UniProt O77255, N402F/V379T); assay: cell-based
How it was run: as §1

CfEcR-DEF mutant V96W = CfEcR-DEF mutant V96W (Choristoneura fumiferana, UniProt O77255, V379W); assay: cell-based
How it was run: as §1

CfEcR-DEF mutant A110E = CfEcR-DEF mutant A110E (Choristoneura fumiferana, UniProt O77255, A393E); assay: cell-based
CfEcR-DEF mutant A110E, sequence (P28702 299-449, stated change not applied): as the sequence (P28702 299-449) above
CfEcR-DEF mutant A110E, sequence (O77255 entry or part of it A393E): as the sequence (O77255 entry or part of it F392N) above, with N186F, A187E counted along it
How it was run: as §1

CfEcR-DEF mutant A110W = CfEcR-DEF mutant A110W (Choristoneura fumiferana, UniProt O77255, A393W); assay: cell-based
CfEcR-DEF mutant A110W, sequence (P28702 299-449, stated change not applied): as the sequence (P28702 299-449) above
CfEcR-DEF mutant A110W, sequence (O77255 entry or part of it A393W): as the sequence (O77255 entry or part of it F392N) above, with N186F, A187W counted along it
How it was run: as §1

CfEcR-DEF mutant L132M = CfEcR-DEF mutant L132M (Choristoneura fumiferana, UniProt O77255, L415M); assay: cell-based; assay type: cell-based; conditions: NIH3T3, 40 h, read-out: Rel Max FI, mutant L132M
Procedure: (§2) This construct was prepared in the same way as in switch 1.1 above except wild-type CfEcR-DEF was replaced with mutant CfEcR-DEF comprising a ligand binding domain comprising a substitution mutation selected from Table 1 below.
(§3) DNAs were transfected into mouse NIH3T3 cells (ATCC) as follows. Standard methods for culture and maintenance of the cells were followed. Cells were harvested and plated 96-well plates at 2,500 cells per well, in 50 μL of growth medium containing 10% fetal bovine serum (FBS). Twenty-four hours later, the cells were treated with 35 μL of serum-free growth medium containing either dimethylsulfoxide (DMSO; control) or a DMSO solution of ligand. The cells were then transfected using Superfect (Qiagen Inc.) transfection reagent. For each well, 0.625 μL of Superfect was mixed with 14.2 μL of serum-free growth medium. 0.16 μg of reporter construct and 0.04 μg of each receptor construct were added to the transfection reagent mix. The contents of the transfection mix were mixed in a vortex mixer and let stand at room temperature for 30 minutes. At the end of incubation, 15 μL of transfection mix was added to the cells. The cells were maintained at 37° C. and 5% CO2 for 48 hours in 5% FBS.
(§4) Reporter Assays: Cells were harvested 40 hours after adding ligands. 125 μL of passive lysis buffer (part of Dual-Luciferase reporter assay system from Promega Corporation) were added to each well of the […] plate. The plates were placed on a rotary shaker for 15 minutes. Twenty μL of lysate were assayed. Luciferase activity was measured using Dual-Luciferase reporter assay system from Promega Corporation following the manufacturer's instructions. Fold induction (FI) activities were calculated by dividing relative light units (“RLU”) in ligand treated cells with RLU in DMSO treated cells (untreated control).

CfEcR-DEF mutant F48N = CfEcR-DEF mutant F48N (Choristoneura fumiferana, UniProt O77255, F331N); assay: GAL4-driven luciferase reporter assay in NIH3T3 cells; assay type: cell-based
Procedure: as §2, §3, §4

[2] = biological target: CfEcR-DEF mutant V107I/Y127E/T52V (Choristoneura fumiferana, UniProt O77255, T335V/V390I/Y410E); assay: as above; assay type: cell-based
CfEcR-DEF mutant V107I/Y127E/T52V, sequence (P28702 299-449): as the sequence (P28702 299-449) above
CfEcR-DEF mutant V107I/Y127E/T52V, sequence (O77255 entry or part of it T335V/V390I/Y410E): as the sequence (O77255 entry or part of it M408P) above, with T117V, V172I, P190M, Y192E counted along it
Procedure: as §2, §3, §4

CfEcR-DEF mutant M125W = CfEcR-DEF mutant M125W (Choristoneura fumiferana, UniProt O77255, M408W); assay: as above; assay type: cell-based
Procedure: as §2, §3, §4

[3] = biological target: CfEcR-DEF mutant T52V/A110P (Choristoneura fumiferana, UniProt O77255, A393P/T335V); assay: as above; assay type: cell-based
Procedure: as §2, §3, §4

[4] = NIH3T3, 40 h, read-out: Rel Max FI

## Cc1cc(C)cc(C(=O)N(NC(=O)c2cccc(C(C)C)c2C)C(C)(C)C)c1 [RG-102362, 3,5-Dimethyl-benzoic acid N-tert-butyl-N′-(3-isopropyl-2-methyl-benzoyl)-hydrazide]
CfEcR-DEF mutant L132V
  pEC50: 6.54
CfEcR-DEF mutant L132V; [4]
  Emax: 74%
CfEcR-DEF mutant A110P
  pEC50: 6.11
CfEcR-DEF mutant A110P; [4]
  Emax: 64%
CfEcR-DEF mutant M125P
  pEC50: < 4.48
CfEcR-DEF mutant M125P; [4]
  Emax: 78%
CfEcR-DEF mutant W238P
  pEC50: 6.54
CfEcR-DEF mutant W238P; [4]
  Emax: 40%
CfEcR-DEF mutant R95W
  pEC50: ~5.10
CfEcR-DEF mutant R95W; [4]
  Emax: 25%
CfEcR-DEF mutant M54W
  pEC50: 5.91
CfEcR-DEF mutant M54W; [4]
  Emax: 44%
CfEcR-DEF mutant F109N
  pEC50: 5.73
CfEcR-DEF mutant F109N; [4]
  Emax: 40%
CfEcR-DEF mutant F109W
  pEC50: 5.85
CfEcR-DEF mutant F109W; [4]
  Emax: 70%
CfEcR-DEF mutant M125C; EC50, mutant M125C
  pEC50: ≤ 4.48
CfEcR-DEF mutant M125C; [4]
  Emax: 15%
CfEcR-DEF mutant F48L
  pEC50: 6.25
CfEcR-DEF mutant F48L; [4]
  Emax: 53%
CfEcR-DEF mutant Y120W
  pEC50: 5.30
CfEcR-DEF mutant Y120W; [4]
  Emax: 67%
CfEcR-DEF mutant L234M
  pEC50: 5.69
CfEcR-DEF mutant L234M; [4]
  Emax: 43%
[1]
  pEC50: ~5.00
[1]; [4]
  Emax: 19%
CfEcR-DEF mutant V96W
  pEC50: 5.49
CfEcR-DEF mutant V96W; [4]
  Emax: 38%
CfEcR-DEF mutant A110E
  pEC50: 5.99
CfEcR-DEF mutant A110E; [4]
  Emax: 78%
CfEcR-DEF mutant A110W
  pEC50: 5.52
CfEcR-DEF mutant A110W; [4]
  Emax: 55%
CfEcR-DEF mutant L132M
  Emax: 1%
CfEcR-DEF mutant L132M; relative to max fold induction of GS-E ligand
  Emax: 66%
CfEcR-DEF mutant F48N
  pEC50: 5.77
CfEcR-DEF mutant F48N; [4]
  Emax: 66%
[2]
  pEC50: > 8.00
[2]; [4]
  Emax: 73%
CfEcR-DEF mutant M125W
  pEC50: 5.46
CfEcR-DEF mutant M125W; [4]
  Emax: 44%
[3]
  pEC50: 6.49
[3]; [4]
  Emax: 94%

Reference: US9163256B2, “Mutant receptors and their use in a nuclear receptor-based inducible gene expression system” (priority 2004, dated 2015)
